The record followed here is ChEMBL document CHEMBL4616640, “Discovery of novel pyrrole derivatives as potent agonists for the niacin receptor GPR109A” (Bioorg Med Chem Lett, 2020).

A word on the AUC(0-t): it is exposure summed from dosing to a finite time, without extrapolation to infinity. Low readings indicate less exposure, high ones more exposure.

A short description of the data set: AUC (0 to 7 hrs) in rat at 10 mg/kg, po. It is filed as ADME, organism-based. Details: dose 10 mg/kg, time < 7 hr, route oral. The conditions noted are these: in vivo.

`CCCCn1cc(NC(=O)CCc2nc(-c3ccc(O)cn3)no2)c(C(=O)O)c1` had an area under the curve AUC(0-t) at 7 h of 630 ng·h/mL.
